Data published in patent US5519055A, “Substituted kynurenines and process for their preparation” (University of Maryland at Baltimore, priority 1993, dated 1996).
Each block holds one molecule with its values, some of them ahead of it.

What was measured:
[1] = target: T1, KAT (partially purified enzyme preparation) (Rattus norvegicus, UniProt Q08415); assay: Kinetic analysis of KAT inhibitors using a partially purified enzyme preparation; format: biochemical; conditions: KYN varied 2 μM to 2 mM, 1 mM pyruvate, pH 8.0, 2 h at 37° C., double reciprocal plots
T1 construct: a preparation of partially purified enzyme in a total volume of 0.1 ml; from tissue
T1 sequence (Q08415 1-423): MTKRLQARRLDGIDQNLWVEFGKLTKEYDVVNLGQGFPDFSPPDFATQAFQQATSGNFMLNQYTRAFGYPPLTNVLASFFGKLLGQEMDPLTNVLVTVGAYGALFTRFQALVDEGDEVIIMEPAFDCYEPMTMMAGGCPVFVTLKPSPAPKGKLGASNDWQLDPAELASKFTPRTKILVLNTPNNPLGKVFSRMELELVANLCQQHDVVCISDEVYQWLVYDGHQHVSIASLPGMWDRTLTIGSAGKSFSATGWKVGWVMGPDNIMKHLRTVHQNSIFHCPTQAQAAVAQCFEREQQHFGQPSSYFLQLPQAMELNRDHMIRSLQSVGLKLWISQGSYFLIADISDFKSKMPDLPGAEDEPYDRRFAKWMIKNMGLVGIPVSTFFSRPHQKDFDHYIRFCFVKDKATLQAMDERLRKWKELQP
Protocol: C) Kinetic analysis of KAT inhibitors using a partially purified enzyme preparation (Brain Research, 534, 37-44 (9)
The reaction mixture contained [^3 H]KYN (30 nCi), diluted with unlabelled KYN to yield a final concentration of 2 μM, 1 mM pyruvate, 70 μM pyridoxal 5'-phosphate, 150 mM Tris-acetate buffer, pH 8.0, and a preparation of partially purified enzyme in a total volume of 0.1 ml. Test compounds were included in the incubation mixture as needed. The reaction was started by the addition of pyruvate. After incubation for 2 h at 37° C., the reaction was terminated by the addition of 14 μl of 50% (w/w) trichloroacetic acid. Subsequently, 1 ml of 0.1M HCl was added and denaturated protein was removed by a 4-min centrifugation in a Beckman 52 B microfuge. 1 ml of the resulting supernatant was applied to a Dowex 50 W column (0.5×1.0 cm; H^+ form) and washed with 1 ml of 0.1M HCl, followed by 1 ml of distilled water. [^3 H]KYNA was eluted with 2 ml of distilled water and quantitated by liquid scintillation spectrometry. Enzyme measurements were performed in triplicate samples. Blanks were obtained by using an enzyme preparation which had been heat-deactivated for 10 min in a boiling water bath. […] Double reciprocal plots were constructed and lines of best fit were determined by linear regression analysis.

[2] = target: Kynurenine Aminotransferase (KAT); assay: Determination of KAT activity inhibition in rat brain homogenate; format: biochemical; conditions: 2 μM [3H]KYN, 2 h at 37° C., pH 8.0, read-out: ID50 (inhibition of KAT enzyme activity)
Source text: (§1) Compounds which act as KAT inhibitors may be identified using standard test, for example, measuring their ability to inhibit KAT activity in rat brain homogenate as described, for example, in J. Neurochem., 57, 533-540 (1991) or their inhibitory effect on Kynurenic Acid (KYNA) production by rat brain slices as described, for example, in J. Neurochem., 52, 1629-1636 (1989). KAT catalyzes the biosynthesis of KYNA from Kynurenine (KYN): [drawing 2] and it is singularly responsible for the regulation of extracellular KYNA concentrations in the brain (J. Neurochem., 57, 533-540, 1991).
A) Determination of KAT activity inhibition in rat brain homogenate
KAT was measured as described in detail by Okuno et al. (Measurement of rat brain kynurenine aminotransferase at physiological kynurenine concentrations, J. Neurochem., 57, 533-540, 1991).
Briefly, animals were killed by decapitation and the brain tissue was homogenized (1:5 v/w in 5 mM Trisacetate buffer, pH 8.0, containing 10 mM 2-mercaptoethanol and 50 μM pyridoxal 5'-phosphate) and incubated for 2 h at 37° C. in the presence of 2 μM [^3 H]KYN (30 nCi), 1 mM 2-oxoglutarate and 70 μM pyridoxal 5'-phosphate in 150 mM Tris-acetate buffer, pH 8.0. […]
Newly synthesized [^3 H]KYNA was separated from [^3 H]KYN on a Dowex 50 W cation-exchange column and quantitated by liquid scintillation spectrometry. […]

[3] = system: KYNA production by rat tissue slices; assay: Determination of inhibition of KYNA production by rat tissue slices (cerebral cortex); format: cell-based; conditions: 50 μM L-KYN, 2 h at 37° C., pH 7.4
Source text: as §1
B) Determination of inhibition of KYNA production by rat tissue slices
Routinely, slices (base 1×1 mm; weight ≈1.5 mg/slice) from the cerebral cortex were separated on ice and transferred to culture wells (10 slices/well) containing 1 ml of oxygenated Krebs-Ringer buffer (NaCl, 118.5 mM; KCl, 4.75 mM; CaCl 2, 1.77 mM; MgSO4, 1.18 mM; NaH2 PO4, 12.9 mM; NaH2 PO4, 3 mM; glucose, 5mM; pH 7.4). Subsequently, the tissue was preincubated for 10 min at 37° C. and incubated further for 2 h at 37° C., in the presence of 50 μM L-KYN in an oxygenated chamber, on a shaking water bath. Compounds of the present invention were included in the incubation mixture as needed. Following incubation, the culture wells were immediately placed on ice, and the slices were rapidly separated from the incubation medium.
For KYNA determination, 1 ml samples of the incubation medium were immersed in a boiling water bath for 10 min, and the precipitated proteins were removed by centrifugation (8,730× g, 10 min). The supernatants were diluted (1:1, v/v) with 0.2M HCl and applied to Dowex 50 W (hydrogen form, Sigma) cation-exchange columns (0.5×2 cm). Subsequently, the columns were washed with 1 ml of 0.1M HCl and 1 ml of water, and the fraction containing KYNA was eluted with 2 ml of water. The eluates were applied to a 3-μm C18 HPLC column (100×3.2 internal diameter, Bioanalytical Systems, West Lafayette, Ind., U.S.A.), and KYNA was isocratically eluted with a mobile phase containing 50 mM ammonium acetate and 5% methanol at a flow rate of 0.5 ml/min. Under these conditions, the retention time of KYNA was ≈7 min.
Data were recorded and calculated with a Hewlett-Packard 3390A integrator connected to a model 160 UV absorbance detector (Beckman Instruments, Berkeley, Calif., U.S.A.) set at 340 nm.
In this assay, (D,L)-2-amino-4-(2-amino-5-chlorophenyl)-4-oxo butyric acid, also known as D,L-5-chloro-kynurenine, was tested with the following results: […]

[4] = system: excitatory amino acid (EAA) receptor; conditions: J. Neurochem., 52, 1319-1328, 1989; cited from earlier work
[5] = system: glycine modulatory site of the N-methyl-D-aspartate (NMDA) receptor complex; conditions: J. Neurochem., 52, 1319-1328, 1989; cited from earlier work
[6] = substrate: Nc1ccccc1C(=O)C[C@H](N)C(=O)O; assay: purified protein, by the assay type; conditions: other: substrate KYN varied 2 μM to 2 mM, 1 mM pyruvate, pH 8.0, 2 h at 37° C., double reciprocal plots

Ki [1]: 88 µM
IC50 [2]: 78 µM
Molecule: Nc1ccc(Cl)cc1C(=O)CC(N)C(=O)O (racemic) [Example 3, 2-amino-4-(2-amino-5-chlorophenyl)-4-oxo-butyric acid]
inhibition at 25 µM ([3]; 25 μM compound): 33%
inhibition at 50 µM ([3]; 50 μM compound): 39%
inhibition at 100 µM ([3]; 100 μM compound): 56%
inhibition at 250 µM ([3]; 250 μM compound): 66%

Molecule: O=C(O)c1cc(=O)c2ccccc2[nH]1 [KYNA, Kynurenic Acid]
excitatory amino acid (EAA) receptor antagonism [4]: effective excitatory amino acid (EAA) receptor antagonist
affinity to the glycine modulatory site of the NMDA receptor complex [5]: particularly high affinity

B1: KAT (partially purified enzyme preparation) (Rattus norvegicus) (protein)
chain: T1 sequence (Q08415 1-423)
Km [6]: 369 µM
